Measurements taken from paper PMC10180065, “Mechanistic Studies of Arene–Ruthenium(II) Complexes with Carbothioamidopyrazoles as Alternative Cancer Drugs” (Molecules, 2023).

Experiments:
Caco2 = test: MTT cytotoxicity, Caco2; format: cell-based, human; settings: 48 h incubation, read-out: Cytotoxic effect, IC50
Procedure: (§1) Cytotoxicity was evaluated against fifteen adherent human cancer cell lines using the MTT test: colorectal adenocarcinoma cells Caco2 (ATCC® HTB-37™), colorectal adenocarcinoma cells HT29 (ATCC® HTB-38™), colon colorectal carcinoma HCT116 (ATCC® CCL-247™), colon adenocarcinoma COLO205 (ATCC® CCL-222™), colorectal adenocarcinoma SW620 (ATCC® CCL-227™), colorectal adenocarcinoma grade IV LoVo (ATCC® CCL-229™), hepatocellular carcinoma Hep 3b (ATCC® HB-8064™), endometrium adenocarcinoma HEC1A (ATCC® HTB-112™), Ishikawa (99040201; Sigma–Aldrich Sigma, St. Louis, MO, USA), cervical adenocarcinoma cells HeLa (ATCC® CCL-2™), lung epithelial carcinoma A549 (ATCC® CRM-CCL-185™), breast epithelial adenocarcinoma cell positive for estrogen and progesterone receptors MCF7 (ATCC® HTB-22™) and negative for expression of estrogen receptor HCC38 (ATCC® CRL-2314™), acute promyelocytic leukemia HL-60 (ATCC® CCL-240™), skin melanoma WM115 (ATCC® CRL-1676™), and 1 suspension cancer cell line: acute lymphoblastic leukemia NALM6 (purchased from the German Collection of Microorganisms and Cell Cultures). HT29, NALM6, HCC-38 and HL-60 cells were cultured in RPMI 1640 medium (Thermo Fisher Scientific, Waltham, MA, USA) supplemented with 10% fetal bovine serum and antibiotic (gentamicin 25 μg ml^−1) (Gibco, Grand Island, New York, NY, USA). For the remaining tumor cell lines, Dulbecco’s minimal essential medium (DMEM, Lonza, Visp, Switzerland) supplemented with 10% fetal bovine serum and antibiotic instead of RPMI 1640 was used. In addition, Human Microvascular Endothelial Cells (HMEC1), which were obtained from the American Type Culture Collection (Manassas, VA, USA), were used as a model of normal cells. HMEC-1 were cultured in MCDB131 medium (Corning Life Sciences, Corning, NY, USA), supplemented with 10% fetal bovine serum, 10 ng/mL Epidermal Growth Factor (Millipore, Burlington, MA, USA) and 10 mM glutamine (Corning Life Sciences). All cells were grown at 37 °C in humidified atmosphere of 5% CO2 in air. The exponential growth of cells was maintained by regular passaging at 90% confluence three times a week using 0.025% trypsin/EDTA (Gibco, Grand Island, New York, NY, USA).
(§2) The cytotoxicity was tested by a standard MTT [3-(4,5-dimethylthiazol-2-yl)-2,5-diphenyltetrazolium bromide] (Sigma, St. Louis, MO, USA) microplate cell viability assay. The anticancer activity of the investigated compounds was evaluated in vitro on the basis of their ability to inhibit the proliferation of various cancer cells. Exponentially growing cells were seeded a day before the experiment into a 96-well microplate (Nunc, Roskilde, Denmark) at a density up to 6–8 × 10^3 cells/mL (depending on the cell line) and exposed to the test compounds at a wide range of concentrations for 48 h. Subsequently, various concentrations of the studied compounds (10^−7–10^−5 M) freshly prepared in DMSO (final concentration of <0.1% DMSO) and diluted with complete culture medium were added. After 48 h incubation, the cells were immediately subjected to a cell viability assay. At this time point, the number of viable cells in each well was estimated by the MTT test. Briefly, 50 µL (5 mg/mL final concentration) of MTT was added to each microplate well. This procedure was then followed by a three- to four-hour incubation at 37 °C. After incubation, MTT solution was replaced with 100 µL DMSO/well, which solubilized the formazan crystals formed by the dehydrogenases of metabolically active cells. Purple formazan absorbance was measured spectrophotometrically at 570 nm.

human cancer cell lines = test: MTT cytotoxicity, summary statements over the cancer cell line panel; format: cell-based; settings: read-out: IC50 for seven (2c) and six (3c) cancer cell lines
Procedure: Cytotoxicity was evaluated against fifteen adherent human cancer cell lines using the MTT test: colorectal adenocarcinoma cells Caco2 (ATCC® HTB-37™), colorectal adenocarcinoma cells HT29 (ATCC® HTB-38™), colon colorectal carcinoma HCT116 (ATCC® CCL-247™), colon adenocarcinoma COLO205 (ATCC® CCL-222™), colorectal adenocarcinoma SW620 (ATCC® CCL-227™), colorectal adenocarcinoma grade IV LoVo (ATCC® CCL-229™), hepatocellular carcinoma Hep 3b (ATCC® HB-8064™), endometrium adenocarcinoma HEC1A (ATCC® HTB-112™), Ishikawa (99040201; Sigma–Aldrich Sigma, St. Louis, MO, USA), cervical adenocarcinoma cells HeLa (ATCC® CCL-2™), lung epithelial carcinoma A549 (ATCC® CRM-CCL-185™), breast epithelial adenocarcinoma cell positive for estrogen and progesterone receptors MCF7 (ATCC® HTB-22™) and negative for expression of estrogen receptor HCC38 (ATCC® CRL-2314™), acute promyelocytic leukemia HL-60 (ATCC® CCL-240™), skin melanoma WM115 (ATCC® CRL-1676™), and 1 suspension cancer cell line: acute lymphoblastic leukemia NALM6 (purchased from the German Collection of Microorganisms and Cell Cultures). […]
The cytotoxicity was tested by a standard MTT [3-(4,5-dimethylthiazol-2-yl)-2,5-diphenyltetrazolium bromide] […] The anticancer activity of the investigated compounds was evaluated in vitro on the basis of their ability to inhibit the proliferation of various cancer cells. […]

HCC38 = test: MTT cytotoxicity, HCC38; format: cell-based, human; settings: 48 h incubation, read-out: Cytotoxic effect, IC50
Procedure: as §1, §2

Hep 3b = test: MTT cytotoxicity, Hep 3b; format: cell-based, human; settings: 48 h incubation, read-out: Cytotoxic effect, IC50
Procedure: as §1, §2

NALM6 = test: MTT cytotoxicity, NALM6; format: cell-based, human; settings: 48 h incubation, read-out: Cytotoxic effect, IC50
Procedure: as §1, §2

HT29 = test: MTT cytotoxicity, HT29; format: cell-based, human; settings: 48 h incubation, read-out: Cytotoxic effect, IC50
Procedure: as §1, §2

Ishikawa = test: MTT cytotoxicity, Ishikawa; format: cell-based, human; settings: 48 h incubation, read-out: Cytotoxic effect, IC50
Procedure: as §1, §2

HEC1A [1] = test: Mitochondrial potential, JC-1 probe, HEC1A; format: cell-based, human; settings: IC50 concentration
Procedure: Cells (10 × 10^3/well) were seeded in black 96-well plates and grown for 24 h to reach the log phase. […] After removing the medium, the cell monolayer was washed twice with PBS solution and 50 μL of the JC-1 probe at a final concentration of 5 μM was added to the wells of the plate. The cells were incubated with the dye for 30 min in a CO2 incubator. Subsequently, the changes in the fluorescence of monomers (λex = 485 nm and λem = 525 nm) and aggregates (λex = 530 nm and λem = 590 nm) using JC-1 were monitored. The results of the tested trials were presented as the ratio of fluorescence of aggregates and JC1 monomers as a percentage of control values, which was assumed to be 100%.

[2] = system: human microvascular endothelial cell line HMEC1; test: MTT cytotoxicity, normal endothelial cells HMEC1; format: cell-based; settings: for IC50: HMEC1 normal endothelial cells, 48 h incubation, read-out: Cytotoxic effect, IC50; for IC50 for HMEC-1 higher than for cancer cells (selectivity): HMEC-1 vs cancer cells
Procedure: as §1, §2

LoVo = test: MTT cytotoxicity, LoVo; format: cell-based, human; settings: 48 h incubation, read-out: Cytotoxic effect, IC50
Procedure: as §1, §2

MCF7 = test: MTT cytotoxicity, MCF7; format: cell-based, human; settings: 48 h incubation, read-out: Cytotoxic effect, IC50
Procedure: as §1, §2

SW620 = test: MTT cytotoxicity, SW620; format: cell-based, human; settings: 48 h incubation, read-out: Cytotoxic effect, IC50
Procedure: as §1, §2

HEC1A [3] = test: MTT cytotoxicity, HEC1A; format: cell-based, human; settings: 48 h incubation, read-out: Cytotoxic effect, IC50
Procedure: as §1, §2

WM115 = test: MTT cytotoxicity, WM115; format: cell-based, human; settings: 48 h incubation, read-out: Cytotoxic effect, IC50
Procedure: as §1, §2

Hela = test: MTT cytotoxicity, Hela; format: cell-based, human; settings: 48 h incubation, read-out: Cytotoxic effect, IC50
Procedure: as §1, §2

HL60 = test: MTT cytotoxicity, HL60; format: cell-based, human; settings: 48 h incubation, read-out: Cytotoxic effect, IC50
Procedure: as §1, §2

A549 = test: MTT cytotoxicity, A549; format: cell-based, human; settings: 48 h incubation, read-out: Cytotoxic effect, IC50
Procedure: as §1, §2

Colo205 = test: MTT cytotoxicity, Colo205; format: cell-based, human; settings: 48 h incubation, read-out: Cytotoxic effect, IC50
Procedure: as §1, §2

Lipophilicity by RP-TLC = format: physicochemical; set-up: key: RM = log(1/Rf − 1), Rf = a/b; settings: eluent AcCN: H2O at 30–70% v/v, 22 °C
Procedure: All the experimental solutions of standard substances (0.1 mg/mL) were prepared by dissolving ligands (1a–1d) or ruthenium complexes (2a/3a–2d/3d) in ethanol. Commercially-available octadecyl-modified silica aluminum sheets (20 × 20 cm) were cut into 5 × 10 cm plates. The plates were manually spotted with 1.0 μL of freshly prepared solutions using automatic pipets, 5 mm from each edge. The chromatograms for all compounds (1a/2a/3a–1d/2d/3d) were developed using a horizontal developing chamber and the solvent migration distance was about 4.5 cm. The plates were visually inspected under UV light at 254 nm. Each zone was clearly marked and its distance was manually measured. The RP-TLC analyses of lipophilicity were performed at ambient temperature (22 °C). In this experiment, all measurements were performed in triplicate and the obtained results were used in further calculations. The acetonitrile and water mixtures for ligands 1a–1d and arene–ruthenium(II) complexes 2a/3a–2d/3d were used as mobile phases, with […] content increasing in the range of 30–70% v/v, at 5% intervals. Values of the chromatographic retention coefficient Rf (as shown Formula (1)) and RM (as shown Formula (2)), based on received chromatograms, were calculated and converted as follows:(1) Rf=a/b (2) RM=log1/Rf−1

PARP1 = test: Cleaved PARP level (ELISA), WM115 cells; format: cell-based, human; settings: WM115, 24 h at IC50 concentration
Procedure: Cells (1 × 10^6) were seeded in 35 mm dishes and cultured for 24 h in the appropriate medium until they reached log phase growth. […] After incubation, the medium was removed, the cells were washed with PBS solution and trypsinized. The harvested cell pellet was lysed in RIPA buffer (50 mM Tris-HCL, pH 8.0, with 150 mM sodium chloride, 1.0% Igepal CA-630 (NP-40), 0.5% sodium deoxychlorate, and 0.1% sodium dodecyl sulfate) with protease inhibitor (phenylmethylsulfonyl fluoride) (Sigma-Aldrich Sigma, St. Louis, MO, USA). The level of cleaved PARP was estimated using the PARP Cleaved [214/215] ELISA kit (Invitrogen, Waltham, MA, USA) according to the protocol described in the manufacturer’s instructions.

[4] = pH dependent stability of the complexes (UV–Vis); format: physicochemical; settings: 24 h and 48 h
Procedure: The stability measurements were performed on a UV 1800 Shimadzu spectrophotometer (Kyoto, Japan) at room temperature. The complexes 2d and 3d were tested for the stabilities in buffer Na2HPO4 (pH 4 and 8). UV–Vis spectra were recorded hourly for 48 h at 22 °C. The spectra were recorded in the range of 200–800 nm over a time course of 0, 24, and 48 h.

Lipophilicity, RM (Lipophilicity by RP-TLC)	Structure (SMILES)	IC50 (Caco2) [µM]	IC50 (HCC38) [µM]	IC50 (Hep 3b) [µM]	IC50 (NALM6) [µM]	IC50 (HT29) [µM]	IC50 (Ishikawa) [µM]	IC50 [2] [µM]	IC50 for HMEC-1 higher than for cancer cells (selectivity) [2]	IC50 (LoVo) [µM]	IC50 (MCF7) [µM]	IC50 (SW620) [µM]	IC50 (HEC1A [3]) [µM]	IC50 (WM115) [µM]	IC50 (Hela) [µM]	IC50 (HL60) [µM]	IC50 (A549) [µM]	IC50 (Colo205) [µM]	further results
2.27	Cc1ccc(C(C)C)cc1.NC(=S)n1nc(-c2ccccc2)cc1O.[Cl-].[Cl][Ru+] [2c]	> 200	> 200	104 ± 4.4	11.7 ± 1.6	29.5 ± 2.1	142 ± 7.4	192 ± 6.5	3–5 times	42.6 ± 3.2	83.4 ± 7.3	49.4 ± 1.2	24.5 ± 0.9	26.7 ± 3.3	124 ± 7.2	86.5 ± 8	> 200	32.6 ± 3.3	IC50 (human cancer cell lines): < 50 µM; decrease in mitochondrial potential (JC-1) (HEC1A [1]): ~50%
1.64	Cc1cc(O)n(C(N)=S)n1.Cc1ccc(C(C)C)cc1.[Cl-].[Cl][Ru+] [2d]	> 200	> 200	> 200	> 200	168 ± 7.5	100 ± 6.7	163 ± 5.9	3–5 times	> 200	> 200	> 200	67.8 ± 6.1	8 ± 0.9	111 ± 1.7	> 200	> 200	> 200	increase in level of PARP1 degradation compared to controls (PARP1): approximately 115%; Stability, UV–Vis absorption maxima ([4]; pH 4 buffer): did not change; Stability, UV–Vis absorption maxima ([4]; pH 8 buffer): loss absorption
